Target: T1, IRAK3-ePL (Homo sapiens, UniProt Q9Y616)
T1 construct: expressed in transfected cells; host or cells: 293T CRBN OE/GSPT1 G575N KI cells, lentiviral transduction, puromycin selection
Assay: IRAK3-ePL overexpressing degradation assay
Format: cell-based
Conditions: IRAK3-ePL Lenti-X 293T CRBN/GSPT1 G575N cells, overnight incubation, top dose 10 μM; for Dmax: HEK-293T, maximum percentage loss of target protein; for DC50: read-out: IRAK3 ePL degradation EC50
Description: Example B1. IRAK3-ePL Overexpressing Degradation Assay
Stable cell lines were generated by the following protocol. 3×10^5 Lenti-X 293T cells (Clonetech) were plated in 0.8 mL of media in a 12-well plate and incubated overnight at 37° C./5% CO2. Packaging plasmid (0.4 μg, pMD), envelope plasmid (0.4 μg, pSP), and lentiviral transfer IRAK3-ePL plasmid (0.8 μg, IRAK3 sequence NM_007199.3) were mixed in 0.1 mL of Opti-MEM and incubated for 5 min. Simultaneously, 2.4 μL of Lipofectamine 2000 (Invitrogen) was added to 0.1 mL of Opti-MEM (Gibco) and incubated for 5 min. The plasmid DNA and lipofectamine were combined and the mixture was allowed to incubate for 20 min. DNA:Lipofectamine Opti-MEM mixtures were then added to previously plated cells dropwise and the cells were incubated for ~16 h at 37° C./5% CO2. Following incubation, the media was removed and 1.2 mL of fresh media was added per well. Lenti-X 293T cells were incubated for ~30 h at 37° C./5% CO2. […] Following incubation, media was removed from the Lenti-X 293T wells and passed through a […]. Part of the viral supernatant was used to transduce cells and the rest was stored at −80° C. Viruses were then added individually (0.5 mL virus) to each well of the 293T^CRBN OE/GSPT1 G575N KI cells, followed by addition of polybrene (10 mg/mL Millipore) to each well at a final concentration of 5.0 μg/mL. Cells were incubated for ~24 h at 37° C./5% CO2. After aspirating media off plates, cells were washed with DPBS, trypsinized and plated in a 10 cm dish in 15 mL of media and 1 μg/mL puromycin. Following incubation of cells for ~72 h at 37° C./5% CO2, media was aspirated off plates, and cells were washed with DPBS and trypsinized. The cells were plated in a 15 cm dish in 40 mL of media with 1.0 μg/mL Puromycin (Gibco) and incubated for ~72 h at 37° C./5% CO2. Following incubation, media was removed and cells were washed with DPBS and trypsinized. The majority of cells were resuspended in Invitrogen freezing media and stored away (~6-8×10^6 cells/vial).
IRAK3-ePL cellular dose response curve degradation assays were performed by the following protocol. Compounds to be tested were dispensed into a white 384-well tissue-culture treated plate using an acoustic liquid handler. Dilutions were prepared based on a 25 μL assay volume in duplicate 10 point 3-fold serial dilutions starting with a 10 μM dose. Negative control wells were included, which only contain 0.2% DMSO to calculate 100% signal. Positive control wells containing 30 μM Ataluren (luciferase inhibitor) were included to calculate the background signal level. All wells were backfilled to a final DMSO concentration of 0.2% to ensure DMSO uniformity across wells. IRAK3-ePL expressing cells (IRAK3-ePL Lenti-X 293T^CRBN/GSPT1 G575N) were washed, trypsinized, counted, and resuspended in fresh DMEM (Gibco) to give a cell concentration of 200,000 cells/mL. 25 μL of cells (5,000 cells/well) were dispensed into the wells of the 384-well plate prespotted with compounds in the previous step and incubated overnight at 37° C./5% CO2. Following incubation, the 384-well plate was taken out of the incubator and left at room temperature for 30 min. InCELL hunter reagent was prepared according to manufacturer's instructions (EA reagent, lysis buffer, and substrate reagent in a 1:1:4 ratio, Cat #96-0002, DiscoverX), which was added to the 384-well plate 25 μL per well. Following the incubation of the plate for 1 h at room temperature, the luminescence signal was read using a ViewLux plate reader. Data was processed and analyzed in ActivityBase software. In short, the average luminescence values of the positive control wells were subtracted from the rest of the wells for background correction, and all luminescence values were normalized to the DMSO control wells. The average value of the DMSO control wells was set to equal 100% of the relative IRAK3-ePL protein levels. […]

Row | Dmax [%] | DC50 [µM] | SMILES
1 | 27 | > 10 | C[C@@H](Oc1cc(-c2cnn(C3CCN(CCOCCOCCNC(=O)COc4ccc5c(c4)C(=O)N(C4CCC(=O)NC4=O)C5=O)CC3)c2)cnc1N)c1c(Cl)ccc(F)c1Cl (stereo partly drawn) [Compound 15, N-(2-(2-(2-(4-(4-(6-amino-5-((R)-1-(2,6-dichloro-3-fluorophenyl)ethoxy)pyridin-3-yl)-1H-pyrazol-1-yl)piperidin-1-yl)ethoxy)ethoxy)ethyl)-2-((2-(2,6-dioxopiperidin-3-yl)-1,3-dioxoisoindolin-5-yl)oxy)acetamide]
2 | 12 | > 10 | C[C@@H](Oc1cc(-c2cnn(C3CCN(CCOCCNC(=O)COc4ccc5c(c4)C(=O)N(C4CCC(=O)NC4=O)C5=O)CC3)c2)cnc1N)c1c(Cl)ccc(F)c1Cl (stereo partly drawn) [Compound 14, N-(2-(2-(4-(4-(6-amino-5-((R)-1-(2,6-dichloro-3-fluorophenyl)ethoxy)pyridin-3-yl)-1H-pyrazol-1-yl)piperidin-1-yl)ethoxy)ethyl)-2-((2-(2,6-dioxopiperidin-3-yl)-1,3-dioxoisoindolin-5-yl)oxy)acetamide]
3 | 70 | 0.173 | C[C@@H](Oc1cc(-c2cnn(C3CCN(CCNC(=O)COc4ccc5c(c4)C(=O)N(C4CCC(=O)NC4=O)C5=O)CC3)c2)cnc1N)c1c(Cl)ccc(F)c1Cl (stereo partly drawn) [Compound 13, N-(2-(4-(4-(6-amino-5-((R)-1-(2,6-dichloro-3-fluorophenyl)ethoxy)pyridin-3-yl)-1H-pyrazol-1-yl)piperidin-1-yl)ethyl)-2-((2-(2,6-dioxopiperidin-3-yl)-1,3-dioxoisoindolin-5-yl)oxy)acetamide]

The next lines start with the molecule.

Row | SMILES | Dmax [%] | DC50 [µM]
4 | C[C@@H](Oc1cc(-c2cnn(C3CCN(C4CCC5(CC4)CCN(C(=O)c4ccc6c(c4)CN(C4CCC(=O)NC4=O)C6=O)CC5)CC3)c2)cnc1N)c1c(Cl)ccc(F)c1Cl (stereo partly drawn) [Compound 20, 3-(5-(9-(4-(4-(6-amino-5-((R)-1-(2,6-dichloro-3-fluorophenyl)ethoxy)pyridin-3-yl)-1H-pyrazol-1-yl)piperidin-1-yl)-3-azaspiro[5.5]undecane-3-carbonyl)-1-oxoisoindolin-2-yl)piperidine-2,6-dione] | 74 | 0.055
5 | C[C@@H](Oc1cc(-c2cnn(C3CCN(CCNC(=O)COc4cccc5c4C(=O)N(C4CCC(=O)NC4=O)C5=O)CC3)c2)cnc1N)c1c(Cl)ccc(F)c1Cl (stereo partly drawn) [Compound 8, N-(2-(4-(4-(6-amino-5-((R)-1-(2,6-dichloro-3-fluorophenyl)ethoxy)pyridin-3-yl)-1H-pyrazol-1-yl)piperidin-1-yl)ethyl)-2-((2-(2,6-dioxopiperidin-3-yl)-1,3-dioxoisoindolin-4-yl)oxy)acetamide] | 12 | > 10
6 | C[C@@H](Oc1cc(-c2cnn(C3CCN(CCOCCNC(=O)COc4cccc5c4C(=O)N(C4CCC(=O)NC4=O)C5=O)CC3)c2)cnc1N)c1c(Cl)ccc(F)c1Cl (stereo partly drawn) [Compound 9, N-(2-(2-(4-(4-(6-amino-5-((R)-1-(2,6-dichloro-3-fluorophenyl)ethoxy)pyridin-3-yl)-1H-pyrazol-1-yl)piperidin-1-yl)ethoxy)ethyl)-2-((2-(2,6-dioxopiperidin-3-yl)-1,3-dioxoisoindolin-4-yl)oxy)acetamide] | 12 | > 10
7 | C[C@@H](Oc1cc(-c2cnn(C3CCN(C4CCC5(CC4)CCN(C(=O)c4cccc(NC6CCC(=O)NC6=O)c4)CC5)CC3)c2)cnc1N)c1c(Cl)ccc(F)c1Cl (stereo partly drawn) [Compound 22, 3-((3-(9-(4-(4-(6-Amino-5-((R)-1-(2,6-dichloro-3-fluorophenyl)ethoxy)pyridin-3-yl)-1H-pyrazol-1-yl)piperidin-1-yl)-3-azaspiro[5.5]undecane-3-carbonyl)phenyl)amino)piperidine-2,6-dione] | 78 | 0.066
8 | C[C@@H](Oc1cc(-c2cnn(C3CCN(CCOCCOCCOCCOCCNC(=O)COc4ccc5c(c4)C(=O)N(C4CCC(=O)NC4=O)C5=O)CC3)c2)cnc1N)c1c(Cl)ccc(F)c1Cl (stereo partly drawn) [Compound 17, N-(14-(4-(4-(6-amino-5-((R)-1-(2,6-dichloro-3-fluorophenyl)ethoxy)pyridin-3-yl)-1H-pyrazol-1-yl)piperidin-1-yl)-3,6,9,12-tetraoxatetradecyl)-2-((2-(2,6-dioxopiperidin-3-yl)-1,3-dioxoisoindolin-5-yl)oxy)acetamide] | 18 | > 10
9 | C[C@@H](Oc1cc(-c2cnn(C3CCN(CCOCCOCCOCCNC(=O)COc4cccc5c4C(=O)N(C4CCC(=O)NC4=O)C5=O)CC3)c2)cnc1N)c1c(Cl)ccc(F)c1Cl (stereo partly drawn) [Compound 11, N-(2-(2-(2-(2-(4-(4-(6-amino-5-((R)-1-(2,6-dichloro-3-fluorophenyl)ethoxy)pyridin-3-yl)-1H-pyrazol-1-yl)piperidin-1-yl)ethoxy)ethoxy)ethoxy)ethyl)-2-((2-(2,6-dioxopiperidin-3-yl)-1,3-dioxoisoindolin-4-yl)oxy)acetamide] | 12 | > 10

Source: patent US20260234124A1, “Substituted Pyrazolyl-Pyridinyl Compounds as Ligand Directed Degraders of IRAK3” (Celgene Corporation, priority 2022, published 2026)
